Measured values published in ChEMBL document CHEMBL3526061, “Glucuronidation of edaravone by human liver and kidney microsomes: biphasic kinetics and identification of UGT1A9 as the major UDP-glucuronosyltransferase isoform” (Drug Metab Dispos, 2012).

Columns and labels:
[1] = molecular target: T1, UDP-glucuronosyltransferase 1A6 (Homo sapiens, UniProt P19224); experiment: Activity of human recombinant UGT1A6 expressed in insect cells assessed as enzyme mediated glucuronidation at 12.5 uM by LC-MS/MS method; format: ADME
T1 sequence (P19224 whole entry): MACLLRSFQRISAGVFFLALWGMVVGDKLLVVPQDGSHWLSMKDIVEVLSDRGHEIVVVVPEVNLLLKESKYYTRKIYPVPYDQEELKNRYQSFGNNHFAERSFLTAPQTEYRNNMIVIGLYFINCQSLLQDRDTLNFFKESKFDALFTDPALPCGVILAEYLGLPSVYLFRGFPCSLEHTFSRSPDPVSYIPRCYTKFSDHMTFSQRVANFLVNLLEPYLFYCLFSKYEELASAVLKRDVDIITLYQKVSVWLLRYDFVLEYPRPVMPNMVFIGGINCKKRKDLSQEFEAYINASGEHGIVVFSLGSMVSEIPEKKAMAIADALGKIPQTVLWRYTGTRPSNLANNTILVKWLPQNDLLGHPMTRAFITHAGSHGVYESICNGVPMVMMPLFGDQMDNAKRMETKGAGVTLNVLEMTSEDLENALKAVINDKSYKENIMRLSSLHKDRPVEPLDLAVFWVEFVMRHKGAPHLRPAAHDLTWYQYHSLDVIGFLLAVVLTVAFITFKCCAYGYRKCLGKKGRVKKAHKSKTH

[2] = molecular target: T1, UDP-glucuronosyltransferase 1A6; experiment: Activity of human recombinant UGT1A6 expressed in insect cells assessed as intrinsic clearance for enzyme mediated glucuronidation per mg protein by LC-MS/MS method; format: ADME
[3] = molecular target: T2, UDP-glucuronosyltransferase 1A7 (Homo sapiens, UniProt Q9HAW7); experiment: Activity of human recombinant UGT1A7 expressed in insect cells assessed as intrinsic clearance for enzyme mediated glucuronidation per mg protein by LC-MS/MS method; format: ADME
T2 sequence (Q9HAW7 whole entry): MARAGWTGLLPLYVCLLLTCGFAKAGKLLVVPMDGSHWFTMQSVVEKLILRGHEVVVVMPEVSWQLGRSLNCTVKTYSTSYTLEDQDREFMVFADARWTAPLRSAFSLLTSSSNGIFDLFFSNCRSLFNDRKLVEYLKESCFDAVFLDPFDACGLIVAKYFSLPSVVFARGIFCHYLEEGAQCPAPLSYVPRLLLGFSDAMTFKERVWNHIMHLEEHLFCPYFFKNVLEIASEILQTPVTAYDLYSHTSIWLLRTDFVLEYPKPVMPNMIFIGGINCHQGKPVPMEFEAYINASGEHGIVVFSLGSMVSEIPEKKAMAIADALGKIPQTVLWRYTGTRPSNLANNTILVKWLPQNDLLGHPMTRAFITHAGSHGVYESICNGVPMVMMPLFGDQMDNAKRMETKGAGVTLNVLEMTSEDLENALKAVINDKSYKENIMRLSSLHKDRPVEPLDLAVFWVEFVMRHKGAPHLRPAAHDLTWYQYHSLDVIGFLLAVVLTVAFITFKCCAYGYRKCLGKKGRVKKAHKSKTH

[4] = Drug metabolism in human kidney microsomes assessed as intrinsic clearance for drug glucuronidation per mg tissue in absence of BSA by LC-MS/MS method; format: ADME
[5] = Cmax in human at 0.5 mg/kg; format: ADME, organism-based; parameters: dose 0.5 mg/kg; conditions: in vivo
[6] = molecular target: T3, UDP-glucuronosyltransferase 1A9 (Homo sapiens, UniProt O60656); experiment: Activity of human recombinant UGT1A9 expressed in insect cells assessed as enzyme mediated glucuronidation in presence of 100 to 1000 uM propofol by LC-MS/MS method; format: ADME
T3 sequence (O60656 whole entry): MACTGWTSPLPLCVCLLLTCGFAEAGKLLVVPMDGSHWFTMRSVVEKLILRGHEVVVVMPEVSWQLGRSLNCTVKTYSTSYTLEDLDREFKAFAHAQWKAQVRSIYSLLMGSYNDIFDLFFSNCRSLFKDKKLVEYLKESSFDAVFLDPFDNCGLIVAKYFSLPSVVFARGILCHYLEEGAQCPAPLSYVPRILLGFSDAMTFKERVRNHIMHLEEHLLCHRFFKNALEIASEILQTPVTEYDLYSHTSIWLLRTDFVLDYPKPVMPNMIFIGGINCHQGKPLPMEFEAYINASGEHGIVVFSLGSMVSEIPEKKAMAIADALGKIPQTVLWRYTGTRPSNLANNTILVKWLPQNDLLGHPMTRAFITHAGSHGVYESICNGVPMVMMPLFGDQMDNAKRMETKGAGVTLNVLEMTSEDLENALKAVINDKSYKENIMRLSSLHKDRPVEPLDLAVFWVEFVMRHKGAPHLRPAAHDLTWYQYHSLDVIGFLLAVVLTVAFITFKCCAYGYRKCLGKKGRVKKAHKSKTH

Liver microsome = experiment: Drug metabolism in human liver microsomes assessed as intrinsic clearance for drug glucuronidation per mg tissue in absence of BSA by LC-MS/MS method; format: ADME
[7] = molecular target: T4, UDP-glucuronosyltransferase 1A1 (Homo sapiens, UniProt P22309); experiment: Activity of human recombinant UGT1A1 expressed in insect cells assessed as enzyme mediated glucuronidation at 500 uM by LC-MS/MS method; format: ADME
T4 sequence (P22309 whole entry): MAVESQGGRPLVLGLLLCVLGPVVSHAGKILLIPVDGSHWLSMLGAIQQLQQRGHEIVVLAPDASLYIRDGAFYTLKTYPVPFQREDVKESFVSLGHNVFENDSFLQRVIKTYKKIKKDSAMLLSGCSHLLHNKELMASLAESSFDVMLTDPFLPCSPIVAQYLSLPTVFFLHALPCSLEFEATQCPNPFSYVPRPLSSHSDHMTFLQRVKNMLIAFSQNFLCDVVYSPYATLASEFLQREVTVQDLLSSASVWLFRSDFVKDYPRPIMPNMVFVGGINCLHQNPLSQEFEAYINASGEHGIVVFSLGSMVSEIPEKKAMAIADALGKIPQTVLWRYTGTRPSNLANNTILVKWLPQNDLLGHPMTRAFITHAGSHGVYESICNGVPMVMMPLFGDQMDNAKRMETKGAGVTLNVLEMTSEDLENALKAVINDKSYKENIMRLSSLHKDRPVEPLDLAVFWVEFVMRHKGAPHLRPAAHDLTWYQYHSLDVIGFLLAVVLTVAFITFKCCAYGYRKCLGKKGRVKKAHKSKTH

CC1=NN(c2ccccc2)C(=O)C1 [EDARAVONE]
Drug metabolism [1]: metabolite_detected
clearance [2]: 1.6 µL/min/mg
CL [3]: 1.7 µL/min/g
CL(high) [4]: 45.3 µL/min/mg
CL(low) [4]: 1.8 µL/min/mg
Cmax [5]: 6 µM
Drug metabolism [6]: metabolite_not_detected
CLHH (Liver microsome): 8.4 µL/min/g
CLHL (Liver microsome): 1.3 µL/min/mg
Drug metabolism [7]: metabolite_detected
